The record followed here is patent US20020049250A1, “PPAR receptor activator compounds for treating cutaneous disorders/afflictions” (priority 1999, published 2002).

What all share (assay type): cell-based
The target of test [1] is T1, PPAR-α (Homo sapiens, UniProt Q07869).
T1 construct: expressed in transfected cells; host or cells: HeLa cells
T1 sequence (Q07869 1-468): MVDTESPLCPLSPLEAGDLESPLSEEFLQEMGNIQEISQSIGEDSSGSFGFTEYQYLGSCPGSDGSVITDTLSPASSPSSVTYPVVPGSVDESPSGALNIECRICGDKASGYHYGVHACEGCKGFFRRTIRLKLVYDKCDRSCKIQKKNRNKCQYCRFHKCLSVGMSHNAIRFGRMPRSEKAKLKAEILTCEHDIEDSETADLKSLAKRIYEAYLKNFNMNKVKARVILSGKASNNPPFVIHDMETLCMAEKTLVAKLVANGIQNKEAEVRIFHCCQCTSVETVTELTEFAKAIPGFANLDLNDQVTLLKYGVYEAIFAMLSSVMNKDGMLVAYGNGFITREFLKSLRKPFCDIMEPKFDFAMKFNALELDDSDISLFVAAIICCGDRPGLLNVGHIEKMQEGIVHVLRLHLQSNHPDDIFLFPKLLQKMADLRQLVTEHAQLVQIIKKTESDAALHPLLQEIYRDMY
Nature of the test: PPAR-type receptor transactivation test (luciferase reporter), PPAR-α. The settings on record: for Emax: HeLa, 24 h, read-out: % activation α; for AC50 / % activation α: cotransfected HeLa cells treated 24 hours; for AC50: luciferase, concentration giving 50% of the activity of reference molecule; for % activation α: luciferase activity, relative to reference molecule Reference 1. On the procedure:
(§1) This activity is determined with the aid of a reporter enzyme (luciferase) for activation due to the compound via one of the PPAR receptors.
(§2) The biological tests carried out correspond to those described above. […] Thus, the activating power via PPAR-α, PPAR-γ or PPAR-δ of molecules may be evaluated with a transactivation test in which HeLa cells were cotransfected with an expression vector encoding these receptors and a reporter plasmid containing a PPRE response element cloned upstream of part of an SV40 virus promoter and of the luciferase gene. The cotransfected cells were treated for 24 hours with the molecules to be tested and the luciferase activity was determined by luminescence.
(In general: A reporter such as luciferase makes a cellular process visible.)

Test [2] has as its target T2, PPAR-γ (Homo sapiens, UniProt P37231).
T2 construct: expressed in transfected cells; host or cells: HeLa cells
T2 sequence (P37231 1-505): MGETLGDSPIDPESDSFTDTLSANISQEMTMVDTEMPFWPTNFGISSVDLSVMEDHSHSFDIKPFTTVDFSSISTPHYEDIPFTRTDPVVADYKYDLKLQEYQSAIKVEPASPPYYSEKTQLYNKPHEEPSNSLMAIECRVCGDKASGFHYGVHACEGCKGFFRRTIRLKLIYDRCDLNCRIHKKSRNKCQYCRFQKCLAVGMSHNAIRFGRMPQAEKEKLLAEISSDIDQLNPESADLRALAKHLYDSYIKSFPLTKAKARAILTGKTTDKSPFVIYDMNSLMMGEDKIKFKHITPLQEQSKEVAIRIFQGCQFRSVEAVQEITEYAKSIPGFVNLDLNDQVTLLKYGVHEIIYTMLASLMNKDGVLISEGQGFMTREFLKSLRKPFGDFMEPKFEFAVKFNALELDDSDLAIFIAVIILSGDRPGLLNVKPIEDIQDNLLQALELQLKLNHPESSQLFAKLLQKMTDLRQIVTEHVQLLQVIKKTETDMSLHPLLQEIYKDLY
Nature of the test: PPAR-type receptor transactivation test (luciferase reporter), PPAR-γ. The settings on record: for Emax: HeLa, 24 h, read-out: % activation γ; for AC50 / % activation γ: cotransfected HeLa cells treated 24 hours; for AC50: luciferase, concentration giving 50% of the activity of reference molecule; for % activation γ: luciferase activity, relative to reference molecule Reference 2. On the procedure: as §1, §2

Test [3] concerns the target T3, PPAR-β (Homo sapiens, UniProt Q03181).
T3 construct: expressed in transfected cells; host or cells: HeLa cells
T3 sequence (Q03181 1-441): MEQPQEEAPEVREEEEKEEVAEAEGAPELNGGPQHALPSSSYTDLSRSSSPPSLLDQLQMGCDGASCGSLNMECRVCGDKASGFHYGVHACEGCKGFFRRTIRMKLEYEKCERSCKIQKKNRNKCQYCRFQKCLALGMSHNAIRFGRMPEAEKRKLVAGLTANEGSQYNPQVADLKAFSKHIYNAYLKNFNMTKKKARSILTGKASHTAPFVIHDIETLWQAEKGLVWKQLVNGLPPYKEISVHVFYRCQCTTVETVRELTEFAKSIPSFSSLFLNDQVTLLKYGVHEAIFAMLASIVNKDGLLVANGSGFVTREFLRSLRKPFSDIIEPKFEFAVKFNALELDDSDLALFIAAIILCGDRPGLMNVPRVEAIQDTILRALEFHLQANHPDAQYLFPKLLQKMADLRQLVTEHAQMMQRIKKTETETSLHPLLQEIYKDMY
Nature of the test: PPAR-type receptor transactivation test (luciferase reporter), PPAR-β. As to conditions: for Emax: HeLa, 24 h, read-out: % activation β; for AC50 / % activation β: cotransfected HeLa cells treated 24 hours; for AC50: luciferase, concentration giving 50% of the activity of reference molecule; for % activation β: luciferase activity, relative to reference molecule Reference 2. The protocol:
as §1, §2

On to `COc1cc(C(=O)c2ccc3cc(C(=O)O)ccc3c2)ccc1C12CC3CC(CC(C3)C1)C2` [compound 5, 6-(4-adamantan-1-yl-3-methoxybenzoyl)naphthalene-2-carboxylic acid], for which the results for the Emax in test [1], in test [2] and in test [3] were 6%, 3% and 8%, respectively.

As a reminder, the AC50 is the midpoint of the concentration-response curve, whichever way the signal moves. Low readings indicate activity at low concentration, high ones activity only at high concentration. Regarding `CC1(C)CCc2cc(C(=O)c3ccc4cc(C(=O)O)ccc4c3)ccc2O1` [Compound 2, 6-(2,2-dimethylchroman-6-carbonyl)naphthalene-2-carboxylic acid], the results for the Emax in test [1], in test [2] and in test [3] were 48%, 190% and 280%, respectively. The AC50 in test [1] was 900 nM; in test [2], 1500 nM; in test [3], 700 nM.

`CCCCOC(c1ccc2c(c1)C(C)(C)CCC2(C)C)c1ccc2cc(C(=O)O)ccc2c1` (stereo not shown) [Comparative Example 1, 6-[butoxy(5,5,8,8-tetramethyl-5,6,7,8-tetrahydronaphthalen-2-yl)methyl]naphthalene-2-carboxylic acid]: the Emax stood at 0% in test [1], 7% in test [2] and 28% in test [3].

`CC(C)(C)c1ccc(C(=O)c2ccc3cc(C(=O)O)ccc3c2)cc1` [Compound 3, 6-(4-tert-butylbenzoyl)naphthalene-2-carboxylic acid]: the Emax was determined as 63% in test [1], 148% in test [2] and 277% in test [3]. Further, the AC50 in test [1] worked out at 1000 nM; in test [2], 360 nM; in test [3], 300 nM.

Consider `O=C(O)c1ccc2cc(C(=O)c3ccc4c(c3)CCCC4)ccc2c1` [Compound 4, 6-(5,6,7,8-tetrahydronaphthalene-2-carbonyl)naphthalene-2-carboxylic acid], for which the Emax turned out to be 40% in test [1], 174% in test [2] and 291% in test [3]. Besides, the AC50 in test [1] worked out at 2000 nM; in test [2] it was 800 nM; in test [3], 500 nM.

For `Cc1cccc(Nc2cc(Cl)nc(SCC(=O)O)n2)c1C` [Reference 1, [4-chloro-6-(2,3-dimethylphenylamino)pyrimidin-2-ylsulphanyl]acetic acid], the “% activation α” value in test [1] was found to be 100%.

On to `COc1ccc(C(=O)c2ccc(C(=O)O)cc2)cc1C12CC3CC(CC(C3)C1)C2` [compound 7, 4-(3-adamantan-1-yl-4-methoxybenzoyl)benzoic acid], for which the values for the Emax in test [1], in test [2] and in test [3] were 0%, 0% and 23%, respectively.

Take “C-(6-carboxynaphthalen-2-yl)-C-(5,5,8,8-tetramethyl-5,6,7,8-tetrahydronaphthalen-2-yl)methylammonium [compound 2]”: in test [1], the “% activation α” value was 1%. For the same compound, the “% activation γ” value in test [2] was found to be 13%. In addition, the “% activation β” value in test [3] was found to be 1%.

On to `COc1ccc(C(=O)c2ccc3cc(C(=O)O)ccc3c2)cc1-c1ccccc1` [Comparative Example 4, 6-(6-methoxybiphenyl-3-carbonyl)napthalene-2-carboxylic acid], for which the “% activation α” value in test [1] was found to be 6%. For the same compound, in test [2], the “% activation γ” value is 2%. Further, the “% activation β” value in test [3] is 23%.

With `COc1ccc(C(O)c2ccc(C(=O)O)cc2)cc1C12CC3CC(CC(C3)C1)C2` (stereo not shown) [Comparative Example 6, 4-[(3-adamantan-1-yl-4-methoxyphenyl)hydroxymethyl]benzoic acid], the Emax in test [1] is 4%; in test [2] it was 7%; in test [3], 16%.

In the case of “6-(2,4-diisopropylbenzoyl)napthalene-2-carboxylic acid [compound 3]”, the “% activation α” value in test [1] came out at 6%. Also, the “% activation γ” value in test [2] turned out to be 3%. Besides, the “% activation β” value in test [3] was 19%.

With `CC1(C)CCOc2ccc(C(=O)c3ccc4cc(C(=O)O)ccc4c3)cc21` [Compound 5, 6-(4,4-dimethylchroman-6-carbonyl)naphthalene-2-carboxylic acid], the Emax in test [1] worked out at 16%; in test [2] it was 36%; in test [3], 92%.
